Experimental data as given in US12421225B2, “Heteroaromatic amide derivative and medicament containing the same” (KAKEN PHARMACEUTICAL CO., LTD., priority 2018, dated 2025).

What was measured:
human Nav1.5 = human Nav1.5 (Homo sapiens (Human), UniProt Q14524); experiment: Human Nav1.5 inhibitory activity evaluation (automated patch clamp QPatch16X, HEK293 cells stably expressing human Nav1.5); assay type: cell-based
Procedure, shortened: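 IC50 derived from concentration-response of inward current at the 20th of 20 action-potential-mimicking pulses (holding −80 mV, leak corrected with −100 mV step). HEK293 cells stably expressing human Nav1.5, room temperature, extracellular pH 7.4, intracellular CsF-based pH 7.3, 0.1% DMSO.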

human Nav1.7 = human Nav1.7 (Homo sapiens (Human), UniProt Q15858); experiment: Human Nav1.7 inhibitory activity evaluation (automated patch clamp QPatch16X, HEK293A cells stably expressing human Nav1.7 and human Navβ1); assay type: cell-based
Procedure, shortened: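 IC50 calculated from the concentration-response of inward current evoked by the second −10 mV, 50 ms depolarisation, which follows a 15 s conditioning step at roughly 30-40% inactivation and a 100 ms −120 mV interval. Cells: HEK293A expressing human Nav1.7/Navβ1, automated patch clamp, room temperature, 0.1% DMSO final.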

[1] = human Nav1.5, automated patch clamp
[2] = human Nav1.7, automated patch clamp
[3] = HEK293 cells stably expressing human Nav1.5, automated patch clamp QPatch16X
[4] = HEK293A cells stably expressing human Nav1.7 and human Navβ1, automated patch clamp QPatch16X

Sequence of human Nav1.5 (Q14524 whole entry): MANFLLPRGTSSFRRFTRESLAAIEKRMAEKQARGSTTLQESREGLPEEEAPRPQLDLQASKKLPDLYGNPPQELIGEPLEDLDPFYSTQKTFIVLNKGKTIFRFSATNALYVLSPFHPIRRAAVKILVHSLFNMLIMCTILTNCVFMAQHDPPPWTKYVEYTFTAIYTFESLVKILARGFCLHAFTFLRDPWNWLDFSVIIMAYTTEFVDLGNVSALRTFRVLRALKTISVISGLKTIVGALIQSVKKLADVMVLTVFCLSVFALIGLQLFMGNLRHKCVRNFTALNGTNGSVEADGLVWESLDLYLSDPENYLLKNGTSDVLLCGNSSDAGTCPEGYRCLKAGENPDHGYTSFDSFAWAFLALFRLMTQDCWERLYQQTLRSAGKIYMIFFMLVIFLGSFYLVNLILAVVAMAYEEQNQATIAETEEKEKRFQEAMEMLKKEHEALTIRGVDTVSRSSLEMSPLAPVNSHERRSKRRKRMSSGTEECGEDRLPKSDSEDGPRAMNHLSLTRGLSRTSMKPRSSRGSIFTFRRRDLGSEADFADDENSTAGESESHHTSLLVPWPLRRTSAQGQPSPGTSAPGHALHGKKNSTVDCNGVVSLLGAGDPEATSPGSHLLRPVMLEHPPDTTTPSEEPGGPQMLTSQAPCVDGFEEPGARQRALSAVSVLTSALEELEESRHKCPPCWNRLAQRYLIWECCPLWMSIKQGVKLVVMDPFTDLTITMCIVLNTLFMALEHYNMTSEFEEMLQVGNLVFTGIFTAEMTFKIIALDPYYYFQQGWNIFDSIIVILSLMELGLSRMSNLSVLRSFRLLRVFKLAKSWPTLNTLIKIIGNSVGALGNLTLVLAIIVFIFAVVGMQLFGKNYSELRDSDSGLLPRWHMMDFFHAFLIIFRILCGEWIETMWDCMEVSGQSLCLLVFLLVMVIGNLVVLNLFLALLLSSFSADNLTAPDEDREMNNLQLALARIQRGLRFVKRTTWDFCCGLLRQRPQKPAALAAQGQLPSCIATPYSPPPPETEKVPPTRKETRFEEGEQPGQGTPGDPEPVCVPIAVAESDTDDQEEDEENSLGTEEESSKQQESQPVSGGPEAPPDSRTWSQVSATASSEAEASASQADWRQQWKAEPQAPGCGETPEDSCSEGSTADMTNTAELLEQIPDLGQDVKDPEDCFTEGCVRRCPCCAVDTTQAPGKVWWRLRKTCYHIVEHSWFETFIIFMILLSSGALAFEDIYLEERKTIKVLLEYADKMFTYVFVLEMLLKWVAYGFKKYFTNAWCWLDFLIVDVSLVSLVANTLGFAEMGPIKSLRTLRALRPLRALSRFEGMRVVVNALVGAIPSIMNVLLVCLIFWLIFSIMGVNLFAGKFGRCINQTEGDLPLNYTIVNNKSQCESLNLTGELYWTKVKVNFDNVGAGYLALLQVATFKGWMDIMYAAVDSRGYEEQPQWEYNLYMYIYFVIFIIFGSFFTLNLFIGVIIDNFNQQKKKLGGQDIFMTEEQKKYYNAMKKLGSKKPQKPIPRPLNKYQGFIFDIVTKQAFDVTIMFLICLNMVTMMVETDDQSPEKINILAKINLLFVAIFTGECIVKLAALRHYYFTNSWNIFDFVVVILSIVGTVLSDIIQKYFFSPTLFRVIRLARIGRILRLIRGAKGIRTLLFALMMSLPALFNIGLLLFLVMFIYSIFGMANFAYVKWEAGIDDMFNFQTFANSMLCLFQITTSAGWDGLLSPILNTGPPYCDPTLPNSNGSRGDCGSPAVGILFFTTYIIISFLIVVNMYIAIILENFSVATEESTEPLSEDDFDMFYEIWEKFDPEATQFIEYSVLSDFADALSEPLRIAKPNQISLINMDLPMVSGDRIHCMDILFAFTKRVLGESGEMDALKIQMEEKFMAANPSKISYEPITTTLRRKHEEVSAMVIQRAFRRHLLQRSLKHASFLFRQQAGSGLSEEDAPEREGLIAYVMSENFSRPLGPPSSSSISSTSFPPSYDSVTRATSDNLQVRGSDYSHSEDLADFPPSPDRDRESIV
Sequence of human Nav1.7 (Q15858 whole entry): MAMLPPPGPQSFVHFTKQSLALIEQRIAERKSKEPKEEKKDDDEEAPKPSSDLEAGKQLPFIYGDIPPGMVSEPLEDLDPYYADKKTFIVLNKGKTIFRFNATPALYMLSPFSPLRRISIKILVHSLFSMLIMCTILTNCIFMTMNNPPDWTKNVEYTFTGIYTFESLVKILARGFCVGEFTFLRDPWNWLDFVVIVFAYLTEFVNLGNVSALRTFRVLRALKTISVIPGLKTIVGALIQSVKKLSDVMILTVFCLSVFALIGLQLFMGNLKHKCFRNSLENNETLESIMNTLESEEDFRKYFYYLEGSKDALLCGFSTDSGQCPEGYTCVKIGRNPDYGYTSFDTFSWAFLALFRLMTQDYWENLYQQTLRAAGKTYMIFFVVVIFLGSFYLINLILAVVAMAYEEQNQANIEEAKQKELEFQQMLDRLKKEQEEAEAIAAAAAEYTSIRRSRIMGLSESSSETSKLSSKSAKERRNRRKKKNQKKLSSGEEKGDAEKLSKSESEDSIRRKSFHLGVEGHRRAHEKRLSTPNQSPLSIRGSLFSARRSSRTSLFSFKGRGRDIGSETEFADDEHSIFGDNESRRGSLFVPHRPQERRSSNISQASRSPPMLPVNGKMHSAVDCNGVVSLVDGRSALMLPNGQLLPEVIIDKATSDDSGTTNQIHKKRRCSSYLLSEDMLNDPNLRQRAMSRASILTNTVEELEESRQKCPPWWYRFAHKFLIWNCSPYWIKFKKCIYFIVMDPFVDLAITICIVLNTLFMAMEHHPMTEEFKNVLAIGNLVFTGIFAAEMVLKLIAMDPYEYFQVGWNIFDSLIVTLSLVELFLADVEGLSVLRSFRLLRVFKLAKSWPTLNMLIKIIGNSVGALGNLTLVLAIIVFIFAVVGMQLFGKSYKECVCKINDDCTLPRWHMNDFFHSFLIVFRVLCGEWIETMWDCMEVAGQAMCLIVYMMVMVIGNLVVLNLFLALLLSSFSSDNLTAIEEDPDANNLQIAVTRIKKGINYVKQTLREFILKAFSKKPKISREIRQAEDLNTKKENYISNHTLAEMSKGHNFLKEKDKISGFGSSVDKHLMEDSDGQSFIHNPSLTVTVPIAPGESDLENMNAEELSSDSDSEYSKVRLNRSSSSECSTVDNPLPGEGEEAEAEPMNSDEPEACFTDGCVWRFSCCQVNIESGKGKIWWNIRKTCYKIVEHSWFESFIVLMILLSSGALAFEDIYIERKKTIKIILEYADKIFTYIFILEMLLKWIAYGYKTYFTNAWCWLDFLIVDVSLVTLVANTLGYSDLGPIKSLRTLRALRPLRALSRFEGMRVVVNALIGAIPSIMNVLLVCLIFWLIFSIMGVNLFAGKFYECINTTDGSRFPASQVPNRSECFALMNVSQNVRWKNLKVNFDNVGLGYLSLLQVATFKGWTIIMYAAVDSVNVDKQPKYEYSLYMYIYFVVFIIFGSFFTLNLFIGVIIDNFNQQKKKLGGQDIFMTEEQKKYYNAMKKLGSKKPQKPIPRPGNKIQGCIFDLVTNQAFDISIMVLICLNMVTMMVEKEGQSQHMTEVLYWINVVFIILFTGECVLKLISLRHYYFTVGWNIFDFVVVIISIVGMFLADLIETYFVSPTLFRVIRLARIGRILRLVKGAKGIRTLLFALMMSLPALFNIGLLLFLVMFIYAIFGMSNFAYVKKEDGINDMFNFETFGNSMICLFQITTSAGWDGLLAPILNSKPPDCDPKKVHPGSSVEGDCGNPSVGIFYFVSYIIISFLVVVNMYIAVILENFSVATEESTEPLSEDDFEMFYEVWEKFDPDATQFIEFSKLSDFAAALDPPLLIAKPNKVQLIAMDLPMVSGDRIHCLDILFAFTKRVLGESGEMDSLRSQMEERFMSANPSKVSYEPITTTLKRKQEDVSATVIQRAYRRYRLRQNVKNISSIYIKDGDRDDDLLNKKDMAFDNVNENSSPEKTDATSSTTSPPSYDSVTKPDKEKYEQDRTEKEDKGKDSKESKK
Sequence of human Nav1.7 (Q07699 19-218 partner): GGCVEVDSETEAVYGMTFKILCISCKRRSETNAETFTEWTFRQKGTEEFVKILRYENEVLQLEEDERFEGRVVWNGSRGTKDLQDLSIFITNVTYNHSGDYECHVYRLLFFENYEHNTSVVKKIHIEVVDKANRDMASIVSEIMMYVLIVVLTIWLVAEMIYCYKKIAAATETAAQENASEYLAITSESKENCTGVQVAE

SMILES	IC50 (human Nav1.7; [2])	IC50 (human Nav1.7; [4])	IC50 (human Nav1.5; [1])	IC50 (human Nav1.5; [3])
COc1cccc(-c2c(C(=O)N[C@H]3COc4ccc(Cl)cc4C3)nc3n2CCOC3)n1 [Example 65]		< 1 µM		< 1 µM
CCCOCC1CCn2nc(C(=O)N[C@H]3COc4ccc(C#N)cc4C3)cc2O1 (stereo partly drawn) [Example 100, N—((R)-6-cyanochroman-3-yl)-5-(propoxymethyl)-6,7-dihydro-5H-pyrazolo[5,1-b][1,3]oxazine-2-carboxamide]		< 10 µM		≥ 3 µM
CC(C)CCC1Cn2cc(C(=O)N[C@H]3COc4ccccc4C3)nc2CN1 (some centres unmarked) [Example 49]		< 10 µM		≥ 3 µM
N#CC1(COCC2CCn3nc(C(=O)N[C@H]4COc5ccc(C(F)(F)F)cc5C4)cc3O2)CC1 (single isomer, unassigned) [554 (isomer A)]	< 1 µM		≥ 3 µM	
O=C(N[C@H]1COc2ccc(Cl)cc2C1)c1cn2c(n1)CCC(C(F)(F)F)C2 (single isomer, unassigned) [Example 2 (isomer A)]		< 1 µM		1 to 3 µM
O=C(N[C@H]1COc2ccc(Cl)cc2C1)c1cc2n(n1)CC(CCN1CC(F)(F)C1)O2 (single isomer, unassigned) [234 (isomer B)]	< 1 µM		< 1 µM	
O=C(N[C@H]1COc2ccc(CC(F)F)cc2C1)c1cc2n(n1)CC(COC(F)(F)F)O2 (single isomer, unassigned) [198 (isomer B)]	< 1 µM		≥ 3 µM	
O=C(N[C@H]1COc2ccc(-c3ccccn3)cc2C1)c1cc2n(n1)CCC(COCC(F)(F)F)O2 (some centres unmarked) [Example 130]		< 10 µM		≥ 3 µM
O=C(N[C@H]1COc2ccc(CC(F)F)cc2C1)c1cc2n(n1)CCC(COC(F)(F)F)O2 (single isomer, unassigned) [136 (isomer B)]		< 1 µM		1 to 3 µM
O=C(N[C@H]1COc2ccc(Cl)cc2C1)c1cc2n(n1)CCC(C(F)(F)F)O2 (single isomer, unassigned) [170 (isomer B)]	< 1 µM		< 1 µM	
O=C(N[C@H]1COc2ccc(COCC(F)(F)F)cc2C1)c1cc2n(n1)CC(CCOC(F)F)O2 (single isomer, unassigned) [215 (isomer A)]	< 1 µM		1 to 3 µM	
O=C(N[C@H]1COc2ccc(Br)cc2C1)c1cn2c(n1)CCC(C(F)(F)F)C2 (some centres unmarked) [Example 5]		< 1 µM		1 to 3 µM
O=C(N[C@H]1COc2ccc(C(F)(F)F)cc2C1)c1cc2n(n1)CCC(C(F)F)O2 (mixture of isomers) [Example 160, 5-(difluoromethyl)-N—((R)-6-(trifluoromethyl)chroman-3-yl)-6,7-dihydro-5H-pyrazolo[5,1-b][1,3]oxazine-2-carboxamide]	< 1 µM		≥ 3 µM	
COC1c2cc(C(F)(F)F)ccc2OC[C@@H]1NC(=O)c1cc2n(n1)CCC(COCC(F)(F)F)O2 (single isomer, unassigned) [598 (isomer B)]	< 1 µM		1 to 3 µM	
O=C(N[C@H]1COc2ccc(COCC(F)(F)F)cc2C1)c1cc2n(n1)CC(COC(F)(F)F)O2 (single isomer, unassigned) [196 (isomer A)]	< 1 µM		1 to 3 µM	
O=C(N[C@H]1COc2ccc(COCC(F)(F)F)cc2C1)c1cc2n(n1)CC(COC(F)(F)F)O2 (some centres unmarked) [Example 195]	< 1 µM		≥ 3 µM	
O=C(N[C@H]1COc2ccc(COCC(F)(F)F)cc2C1)c1cc2n(n1)CCC(COCC(F)(F)F)CO2 (single isomer, unassigned) [602 (isomer A)]	< 1 µM		≥ 3 µM	

SMILES	IC50 (human Nav1.7; [2])	IC50 (human Nav1.7; [4])	IC50 (human Nav1.5; [1])	IC50 (human Nav1.5; [3])
O=C(N[C@H]1COc2ccc(CC(F)F)cc2C1)c1cc2n(n1)CCC(COCC(F)(F)F)O2 (single isomer, unassigned) [127 (isomer A)]		< 1 µM		≥ 3 µM
O=C(N[C@H]1COc2ccc(Cl)cc2C1)c1cn2c(n1)CCC(OCC(F)(F)F)C2 (single isomer, unassigned) [39 (isomer A)]		< 10 µM		1 to 3 µM
O=C(N[C@H]1COc2ccc(COCC(F)(F)F)cc2C1)c1cc2n(n1)CC(C(F)(F)F)O2 (single isomer, unassigned) [184 (isomer A)]	< 1 µM		1 to 3 µM	
N#Cc1ccc2c(c1)C[C@@H](NC(=O)c1cc3n(n1)CCC(c1ccccc1C#N)O3)CO2 (some centres unmarked) [Example 72]		< 1 µM		≥ 3 µM
O=C(N[C@H]1COc2ccc(Cl)cc2C1)c1cc2n(n1)CC(CCN1CC(F)(F)C1)O2 (some centres unmarked) [Example 233]	< 1 µM		< 1 µM	
CC(C)COC1CCc2nc(C(=O)N[C@H]3COc4ccccc4C3)cn2C1 (some centres unmarked) [Example 41]		< 10 µM		≥ 3 µM
COC1c2cc(C(F)(F)F)ccc2OC[C@@H]1NC(=O)c1cc2n(n1)CC(COCC(F)(F)F)O2 (single isomer, unassigned; isomer a) [597(isomer A)]	< 1 µM		≥ 3 µM	
O=C(N[C@H]1COc2ccc(COCC(F)(F)F)cc2C1)c1cc2n(n1)CC(COCC1CC1)O2 (single isomer, unassigned) [186 (isomer B)]	< 1 µM		1 to 3 µM	
N#Cc1ccc2c(c1)C[C@@H](NC(=O)c1cc3n(n1)CC[C@H](COCC(F)(F)F)CO3)CO2 (single isomer, unassigned; isomer a) [572(isomer A)]	< 10 µM		≥ 3 µM	
CN(C(=O)c1cn2c(n1)CCC(C(F)(F)F)C2)[C@H]1COc2ccc(Cl)cc2C1 (single isomer, unassigned) [Example 4]		< 10 µM		≥ 3 µM
N#Cc1ccc2c(c1)C[C@@H](NC(=O)c1cc3n(n1)CCCC(c1ccccc1)O3)CO2 (some centres unmarked) [Example 251]	< 1 µM		≥ 3 µM	
COc1ncc(C(F)(F)F)cc1C1CCc2nc(C(=O)N3CCOC(c4ccc(F)cc4F)C3)cn2C1 (centres unmarked) [Example 32]		< 10 µM		1 to 3 µM
Cc1ccc2c(c1)C[C@@H](NC(=O)c1cc3n(n1)CC(CCNCC(F)(F)F)O3)CO2 (single isomer, unassigned) [228 (isomer A)]	< 1 µM		≥ 3 µM	
Cn1ccc(-c2ccc3c(c2)C[C@@H](NC(=O)c2cc4n(n2)CC(CCOC(F)(F)F)O4)CO3)n1 (some centres unmarked) [Example 212]	< 1 µM		≥ 3 µM	
O=C(N[C@H]1COc2ccc(C(F)(F)F)cc2C1F)c1cc2n(n1)CC[C@H](C(F)F)O2 (single isomer, unassigned; isomer a) [579(isomer A)]	< 1 µM		1 to 3 µM	
O=C(N[C@H]1COc2ccc(COCC(F)(F)F)cc2C1)c1cc2n(n1)CCC(COC(F)F)O2 (some centres unmarked) [Example 139]		< 1 µM		≥ 3 µM
O=C(N[C@H]1COc2ccccc2C1)c1cn2c(n1)CCC(C1(F)CCC1)C2 (some centres unmarked) [Example 35]		< 1 µM		1 to 3 µM

Continued, in another order:

IC50 (human Nav1.7; [2])	IC50 (human Nav1.7; [4])	SMILES	IC50 (human Nav1.5; [1])	IC50 (human Nav1.5; [3])
< 1 µM		O=C(N[C@H]1COc2ccc(CCOC(F)(F)F)cc2C1)c1cc2n(n1)CC(C(F)(F)F)O2 (some centres unmarked) [Example 447]	≥ 3 µM	
< 1 µM		N#Cc1ccc2c(c1)C[C@@H](NC(=O)c1cc3n(n1)CC(CCOC1CCC1)O3)CO2 (some centres unmarked) [Example 470]	1 to 3 µM	
< 1 µM		N#Cc1ccc2c(c1)C[C@@H](NC(=O)c1cc3n(n1)CCN(CCC1CCC1)C3)CO2 [Example 496]	1 to 3 µM	
< 10 µM		O=C(N[C@H]1COc2ccc(Cl)cc2C1)c1cc2n(n1)CCC(c1ccnc(C(F)(F)F)c1)O2 (some centres unmarked) [Example 362]	≥ 3 µM	
< 1 µM		N#Cc1ccc2c(c1)C[C@@H](NC(=O)c1cc3n(n1)CCN(c1ccc(F)cc1)C3)CO2 [Example 278]	1 to 3 µM	
< 1 µM		N#Cc1ccc2c(c1)C[C@@H](NC(=O)c1cc3n(n1)CCC(C#CC(F)(F)F)O3)CO2 (some centres unmarked) [Example 386]	≥ 3 µM	
< 10 µM		O=C(c1cn2c(n1)CCC(c1cccc(OC3COC3)n1)C2)N1CCC(c2ccccc2)C1 (centres unmarked) [Example 313]	≥ 3 µM	
< 1 µM		N#Cc1ccc2c(c1)C[C@@H](NC(=O)c1cc3n(n1)CCC(C(F)(F)F)O3)CO2 (some centres unmarked) [Example 374]	≥ 3 µM	
< 1 µM		O=C(N[C@H]1COc2ccccc2C1)c1cc2n(n1)CCC(c1ccccc1)O2 (some centres unmarked) [Example 349]	1 to 3 µM	
< 1 µM		O=C(N[C@H]1COc2ccc(C(F)(F)F)cc2C1)c1cc2n(n1)CCC(C#CC1CC1)O2 (some centres unmarked) [Example 402]	≥ 3 µM	
< 10 µM		N#Cc1ccc2c(c1)C[C@@H](NC(=O)c1cc3n(n1)CCN(CC(F)(F)C(F)(F)F)C3)CO2 [Example 489]	≥ 3 µM	
< 10 µM		N#Cc1ccc2c(c1)C[C@@H](NC(=O)c1cc3n(n1)CC(COCC1CC1)O3)CO2 (some centres unmarked) [Example 454]	≥ 3 µM	
< 10 µM		O=C(N[C@H]1COc2ccccc2C1)c1cn2c(n1)CCC(OCCOC(F)(F)F)C2 (some centres unmarked) [Example 321]	≥ 3 µM	
< 1 µM		Cn1ccc(-c2c(C(=O)N[C@H]3COc4ccc(C(F)(F)F)cc4C3)nc3n2CCOC3)n1 [Example 345]	1 to 3 µM	
< 10 µM		CN(CCc1cccc(C(F)(F)F)c1)C(=O)c1cn2c(n1)CN(C)C(c1ccccc1)C2 (centres unmarked) [Example 332]	≥ 3 µM	
< 1 µM		CC(C)(c1ccccn1)N1CCn2nc(C(=O)N[C@H]3COc4ccc(Cl)cc4C3)cc2C1 [Example 285]	1 to 3 µM	
< 1 µM		COC(C)(C)CCc1ccc2c(c1)C[C@@H](NC(=O)c1cc3n(n1)CCC(C(F)(F)F)O3)CO2 (some centres unmarked) [Example 400]	≥ 3 µM	
< 10 µM		O=C(N[C@H]1COc2ccccc2C1)c1cc2n(n1)CCN(CC(C1CC1)C1CC1)C2 [Example 490]	≥ 3 µM	
